Assay results: patent US4981788A, “Novel acetylpolyamine amidohydrolase” (Kyowa Hakko Kogyo Co., Ltd., priority 1987, dated 1991)

What was measured:
[1] = target: T1, acetylpolyamine amidohydrolase (the present enzyme, partially purified product) (Mycoplana ramosa, UniProt Q48935); assay: Enzyme activity on acetylpolyamine substrates, partially purified product (substrate specificity, optimum pH/temperature, Km); assay type: biochemical, Mycoplana bullata; settings: for Optimum pH: pH 6 to 10, bis-Tris propane buffer, per substrate; for Relative activity, the present enzyme: pH 7.0, activity against acetylputrescine defined as 100
T1 construct: novel acetylpolyamine amidohydrolase of the present invention accumulated within the grown cells; made in house; host or cells: Mycoplana (natural producer; cells grown in culture)
T1 sequence (Q48935 1-341): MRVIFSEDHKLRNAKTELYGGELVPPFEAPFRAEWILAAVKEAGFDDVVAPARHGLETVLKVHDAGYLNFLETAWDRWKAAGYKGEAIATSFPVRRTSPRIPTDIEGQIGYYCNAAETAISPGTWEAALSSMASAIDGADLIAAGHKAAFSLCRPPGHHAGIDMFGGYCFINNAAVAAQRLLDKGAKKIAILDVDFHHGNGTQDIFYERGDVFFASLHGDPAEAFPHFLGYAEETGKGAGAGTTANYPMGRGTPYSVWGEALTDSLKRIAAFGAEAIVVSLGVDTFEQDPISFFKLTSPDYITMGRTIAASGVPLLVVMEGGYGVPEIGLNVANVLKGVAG
Experimental: Activity of the present enzyme (partially purified products) is measured according to the following procedure. That is, 0.1 ml of an enzyme solution is added to a reagent solution consisting of 1.5 ml of 0.1 M phosphate buffer (pH 7.0), 0.05 ml of 50 mM acetylpolyamine, 0.4 U of putrescine oxidase (when acetylputrescine, acetylcadaverine or acetylspermidine is used as substrate) or polyamine oxidase (when acetylspermidine or acetylspermine is used as substrate), 0.5 ml of 2.4 mM 4-aminoantipyrine, 0.5 ml of 42 mM phenol and 20 U of peroxidase. The mixture is incubated at 37° C., and the absorbance of quinoneimine pigment formed at 500 nm is measured.
In terms of the enzyme activity, the amount of enzyme that can hydrolyze 1 μmole of a substrate in one minute is defined as one unit (1 U).
The relative activities of acetylpolyamine amidohydrolases against various type of acetylpolyamine, defining the activities against acetylputrescine as 100 under a condition of pH 7.0, are as shown in Table 1 below.
Enzyme activity was measured at different pH levels ranging from 6 to 10 by using bis-Tris propane buffer solutions. The optimum pH was 9 for acetylputrescine and acetylcadaverine, and 8 for N^1 -acetylspermidine, N^8 -acetylspermidine and acetylspermine, as shown in FIG. 1.
The optimum working temperature for the present enzyme was about 50° C., when the relative activity was determined, using acetylputrescine as substrate, as shown in FIG. 4. The optimum temperatures for the other acetylpolyamine amidohydrolases were 30° to 40° C. This clearly distinguishes the present enzyme from the known enzymes.
Km values of the present enzyme and the other known enzymes for various types of acetylpolyamine at pH 7.0 were determined from the Line weaver-Burk plot [refer to J. Am. Chem. Soc., 56, 658 (1934)].

[2] = target: T2, acetylpolyamine amidohydrolase (the present enzyme, product purified to homogeneity) (Mycoplana ramosa, UniProt Q48935); assay: Enzyme activity on acetylpolyamine substrates, product purified to homogeneity (Method 2 / Method 3); assay type: biochemical, Mycoplana bullata; settings: for Optimum pH: 37° C., phosphate and borate buffers, per substrate; for Vmax, Mycoplana bullata enzyme: pH 9.0; for Relative activity, Mycoplana bullata enzyme: phosphate buffer pH 9.0, substrate 0.833 mM, acetylputrescine = 100
T2 construct: novel acetylpolyamine amidohydrolase of the present invention accumulated within the grown cells; made in house; host or cells: Mycoplana (natural producer)
T2 sequence (Q48935 1-341): T1 sequence (Q48935 1-341)
From the text: [Method 2] (Assay when acetylputrescine, acetylcadaverine, N^1 -acetylspermidine and N^8 -acetylspermidine are used as substrate:)
The acetylpolyamine can be hydrolyzed by the acetylpolyamine amidohydrolase, as described in [Method 1], and the corresponding free polyamine thus formed is then oxidized by putrescine oxidase. Putrescine oxidase derived from Micrococcus rubens is known to have an activity upon putrescine, cadaverine and spermidine [Adachi, et al., Agric. Biol. Chem, 30, 1202 (1966)]. […] The actual analytical procedure is as described below.
The above reagents, (b) through (h), were put in a cuvette (d: 1.0 cm) and the mixture was preincubated at 37° C. for 2 minutes. The substrate solution (a) was then added, and the resulting mixture was incubated at 37° C. Absorbance at 500 nm was measured over a period of 3 to 5 minutes, and the change in absorbance per minute (ΔODsample) was determined from the linear portion of the plotted curve. For control, the same procedure as above was carried out, using distilled water as reference.
One unit of acetylpolyamine amidohydrolase is defined as its amount necessary to hydrolyze 1 μmole of acetylputrescine at 37° C. for one minute (or the amount necessary to form 0.5 μmole of quinoneimine pigment formed in the method for measuring the enzyme activity described above).
[Method 3] (Assay when acetylspermine is used as substrate:)
Acetylspermine is hydrolyzed by the action of acetylpolyamine amidohydrolase into free form of spermine. The free form of spermine can be oxidized by a polyamine oxidase derived from Aspergillus terreus to produce hydrogen peroxide. Two molar equivalents of hydrogen peroxide is formed from one molar equivalent of spermine. Thus, the enzyme activity can be measured by quantitative determination of the hydrogen peroxide according to the method described above. However, since the above polyamine oxidase also acts upon acetylspermine, it is impossible to exactly measure the activity of acetylpolyamine amidohydrolase by the standard assay. […] The actual procedure is described below.
Reagents (b) through (d) given in item (1) were put in a test tube and the mixture was preincubated at 37° C. for 2 minutes. The substrate solution (a) was then added, the resulting mixture was incubated at 37° C. for 10 minutes, and the reaction was stopped by addition of the termination (e). A sample solution (100 μl) was taken from the reaction mixture and subjected to HPLC as described above to separate free form of spermine from acetylspermine. Generally, acetylspermine is eluted at a position of 38 minutes after the start of elution and free form of spermine at a position of 41 minutes after the start of elution. A sample solution (200 μl), taken from the eluate containing free form of spermine, was mixed in a cuvette with reagents (a) through (e) given in item (2) above, the mixture was incubated at 37° C. for 10 minutes, and the absorbance at 755 nm was measured. For control, the same procedure as above was carried out using 200 μl of Elunt A in place of the sample solution, as reference.
The concentration of free form of spermine in the reaction mixture can be determined from a calibration curve previously prepared on the basis of aqueous soluitons of free form of spermine with different concentrations. If the concentration of free form of spermine contained in 150 μl of the reaction mixture is taken as P (mM), then the potency (A) for 1 ml of the enzyme solution can be expressed by the following equation: […]
The activities upon acetylputrescine, acetylcadaverine, N^1 -acetylspermidine and N^8 -acetylspermidine were measured by [Method 2] in a phosphate buffer (pH 9.0) at a substrate concentration of 0.833 mM, and the activity upon acetyl-spermine was measured by [Method 3] under the same conditions. […] Km values, determined from the Lineweaver-Burk plot, are also listed in the same table. […]

[3] = system: E3: Enzyme derived from Micrococcus luteus (acetylpolyamine amidohydrolase); settings: pH 7.0, cited from earlier work; for Relative activity, E3: activity against acetylputrescine defined as 100
[4] = system: E2: Enzyme derived from Arthrobacter sp. (acetylpolyamine amidohydrolase); settings: pH 7.0, cited from earlier work; for Relative activity, E2: activity against acetylputrescine defined as 100
[5] = system: E1: Enzyme derived from Streptomyces avellaneus (acetylpolyamine amidohydrolase); settings: cited from earlier work

| Structure (SMILES) | Optimum pH [1] | Relative activity, the present enzyme [1] [%] | Substrate concentration at which substrate inhibition was observed [2] [mM] | Optimum pH [2] | Vmax, Mycoplana bullata enzyme [2] [u/mg] | Relative activity, Mycoplana bullata enzyme [2] [%] | Relative activity, E3 [3] [%] | Km [3] [µM] | Relative activity, E2 [4] [%] | Km [4] [µM] | Km ([1]; pH 7.0, Lineweaver-Burk plot) [µM] | Km ([2]; pH 9.0, Lineweaver-Burk plot, read-out: Km, Mycoplana bullata enzyme) [µM] | Relative activity, E1 ([5]; pH 7.0, activity against acetylputrescine defined as 100) [%] | Relative activity, St. avellaneus enzyme ([5]; reported reference data in Table 5, acetylputrescine = 100) [%] |
| --- | --- | --- | --- | --- | --- | --- | --- | --- | --- | --- | --- | --- | --- | --- |
| CC(=O)NCCCCNCCCN [N^8 -Acetylspermidine] | 8 | 51 | ≥ 1 | 9 | 19.8 | 60 | 85.1 | 380 | – | – | – | – | – | – |
| CC(=O)NCCCCCN [Acetylcadaverine] | 9 | 71 | ≥ 1 | – | 18.8 | 72 | 12.5 | – | 45 | 1600 | – | – | – | – |
| CC(=O)NCCCNCCCCN [N^1 -Acetylspermidine] | 8 | 108 | ≥ 1 | 9 | 20.5 | 61 | 3.5 | – | – | – | – | – | – | – |
| CC(=O)NCCCNCCCCNCCCN [Acetylspermine] | 8 | 24 | > 1.6 | 10 | 7.7 | 37 | 2.1 | – | 3 | – | 160 | 290 | 0.4 | 0.4 |
